In patent US20230391748A1, “BICYCLIC INHIBITORS OF IRAK” (priority 2022, published 2023):

How the values were obtained:
IRAK4 = IRAK4 (Homo sapiens (Human), UniProt Q9NWZ3); experiment: IRAK4 ADP-Glo Assay; format: biochemical; conditions: MBP substrate
Protocol: The ADP-Glo™ reagents were thawed at ambient temperature. The Kinase Detection Reagent was prepared by mixing kinase detection buffer with the lyophilized kinase detection substrate, and set aside.
A stock volume of 5× Reaction Kinase Buffer was made with a final concentration of 100 mM MgCl2, 200 mM Tris-HCl, and 0.5 mg/ml of BSA, in distilled H2O with a final pH7.4. A 2× working stock volume of Reaction Kinase Buffer was made containing a final concentration of 100 μM DTT.
The components of IRAK4 Enzyme were thawed on ice. Diluted IRAK4 in 1× Kinase Reaction Buffer (diluted from 2× buffer) was prepared at 5.0 ng/μl.
Then diluted 1:5 in 2× Reaction Buffer in a 96 well plate. 1.0 μl was transferred to a 384 well plate in duplicate. […] 1 μl of 1 mg/ml stock solution of MBP substrate was added NOTE: MBP can be combined with ATP mix with equal volume and then added at 2 μl/well. Final reaction volume was 5 μl.
The plate was centrifuged and the reaction mixture was incubated at room temperature for 60 minutes or at 30° C. for 30 minutes.
The reaction was terminated and the remaining ATP was depleted by adding 5 μl of ADP-Glo™ Reagent. The 384-well plate was centrifuged and then the reaction mixture was incubated for another 40 minutes at ambient temperature.
10 μl of the Kinase Detection Reagent was added. The plate was centrifuged and then the reaction mixture was incubated for another 30 minutes at ambient temperature.
The 384-well reaction plate was read using the WALLAC plate reader (Luminescence 0.1s).

[1] = tested on: TNF-α in Human Primary Monocyte-Derived Dendritic Cells; experiment: Gardiquimod-Induced TNF-α in Human Primary Monocyte-Derived Dendritic Cells; format: cell-based; conditions: Dendritic cell, IFNγ-primed monocyte-derived dendritic cells, 4 μg/ml Gardiquimod, 6 hours, TNF-α ELISA, read-out: TNFα (DC, GARD) (IC50)
Protocol: Gardiquimod-Induced TNF-α in Human Primary Monocyte-Derived Dendritic Cells
After 2 hours, the media including floating cells was carefully removed and 12 ml of fresh RPMI media (10% FBS) containing GM-CSF (100 ng/ml) and IL-4 (20 ng/ml) were added to the adherent monocytes. The monocytes were allowed to differentiate for 7 days at 37° C., 5% CO2 for 7 days, supplementing with fresh GM-CSF and IL-4 after 3 days. The differentiated dendritic cells (DC) were harvested by centrifugation (1200 rpm/5 min). The DCs were primed at 37° C., 5% CO2 for 24 hours with 50 ng/ml IFN-γ (1000 U/ml) at 50K/well in 100 μl/well of fresh RPMI media (10% FBS) in a white clear bottom 96 well plate.
The primed DCs were pre-incubated with test compound for 1 hour at 37° C., 5% CO2 by adding 100 μl of RPMI media containing 2× concentrated test compound per well (0.5% final DMSO concentration).
DCs were stimulated with Gardiquimod (10 μl per well of 20× concentrated Gardiquimod solution in RPMI media to give a final concentration of 4 μg/ml) at 37° C., 5% CO2 for an additional 6 hours. The supernatant (100 μl/well) was harvested to measure TNF-α by ELISA. […] The chemiluminescence values were entered into Athena (Rigel) for curve fitting, EC50 calculation, and database storage.
(§1) TNF-α ELISA was performed according to the vendor protocol, using 96 Well Flat-Bottom, MaxiSorp Black Immuno plates and 100 μL/well of supernatant. The plates were developed using 100 μL/well of Super Signal ELISA Pico Chemiluminescent Substrate. The plates were read with a luminometer, and the chemiluminescence values were entered into Athena (Rigel) for curve fitting, EC50 calculation, and database storage.

TNF-α in human PBMCs = experiment: R848-induced TNF-α in human PBMCs Assay; format: cell-based; conditions: Homo sapiens, PBMC, 4 h, read-out: TNFα (PBMC, R848) (IC50, μM)
Protocol: R848-induced TNF-α in human PBMCs Assay
100 μL/well PBMCs (200K/well) were seeded in 96-well flat-bottom tissue culture plates. […] 100 μL/well 2× compound was added to the PBMC in the tissue culture plates. […] The cells were stimulated with R848 for an additional 4 hours at 37° C., 5% CO2. The supernatant (100 μl/well) was harvested to measure TNF-α by ELISA. […] The chemiluminescence values were entered into Athena (Rigel) for curve fitting, EC50 calculation, and database storage.
as §1

IL23p19 in THP-1 Cells = experiment: LPS Induced IL23p19 in THP-1 Cells (with IFNγ Primed) Assay; format: cell-based; conditions: Homo sapiens, THP-1, 18 h, read-out: IL23 (THP, LPS) (IC50, μM)
Protocol: LPS Induced IL23p19 in THP-1 Cells (with IFNγ Primed) Assay
On day 1, 50K/well THP-1 cells were seeded and primed with IFNγ (50 ng/mL) in 384-well plates for about 18 hours in RPMI media with 10% FBS. […] 50 μL/well 2× compound was added to 50 μL/well THP-1 cells (with IFNγ primed) in duplicate in 384 well tissue culture plates. […] Day 3, after stimulation for 18 hours at 37° C., 5% CO2, the assay plate was centrifuged and 70 μL/well supernatant was harvested. IL-23p19 protein in 70 µL/well of supernatant was measured by sandwich ELISA, and 25 μl/well Cell Titer Glo reagent was added to the remaining cells to measure compound toxicity.
Maxisorp immuno ELISA plates were pre-coated with 25 μL/well of anti-IL-23p19 capture antibody (2.5 ug/mL) in PBS overnight at room temperature. […] 25 μL/well of biotin labeled anti-IL-12(p40/p70) detection antibody (100 ng/mL) in PBS with 1% BSA was added and the plates were incubated at room temperature for 2 hours with shaking. […] The plates were read with a luminometer, and the chemiluminescence values were entered into Athena (Rigel) for curve fitting, EC50 calculation, and database storage.

IRAK4, sequence (Q9NWZ3 whole entry): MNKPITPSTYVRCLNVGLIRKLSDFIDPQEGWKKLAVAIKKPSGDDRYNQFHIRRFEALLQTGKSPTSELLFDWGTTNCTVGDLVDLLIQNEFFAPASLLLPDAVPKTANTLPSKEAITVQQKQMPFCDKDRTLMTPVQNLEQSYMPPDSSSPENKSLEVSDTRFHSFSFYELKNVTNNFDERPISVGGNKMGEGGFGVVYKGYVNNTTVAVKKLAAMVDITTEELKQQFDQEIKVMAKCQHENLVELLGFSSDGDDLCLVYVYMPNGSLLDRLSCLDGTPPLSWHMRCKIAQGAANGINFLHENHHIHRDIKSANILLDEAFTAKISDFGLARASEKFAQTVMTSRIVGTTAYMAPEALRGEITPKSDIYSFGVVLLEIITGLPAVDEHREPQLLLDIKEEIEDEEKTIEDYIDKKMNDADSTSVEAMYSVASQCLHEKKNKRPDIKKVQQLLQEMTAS

| Structure (SMILES) | IC50 (IRAK4) [nM] | IC50 [1] [nM] | IC50 (TNF-α in human PBMCs) [µM] | IC50 (IL23p19 in THP-1 Cells) [µM] |
| --- | --- | --- | --- | --- |
| CC(C)Oc1cc2c(OC[C@@H]3CCC(=O)N3)ncc(C#CC(C)(C)CO)c2cc1C(N)=O [Compound I-5, (S)-4-(4-hydroxy-3,3-dimethylbut-1-yn-1-yl)-7-isopropoxy-1-((5-oxopyrrolidin-2-yl)methoxy)isoquinoline-6-carboxamide] | 120 | 488 | 0.433 | 6.51 |
| CC(C)Oc1cc2c(OC[C@@H]3CCC(=O)N3)ncc(C#CC3CCOCC3)c2cc1C(N)=O [Compound I-6, (S)-7-isopropoxy-1-((5-oxopyrrolidin-2-yl)methoxy)-4-((tetrahydro-2H-pyran-4-yl)ethynyl)isoquinoline-6-carboxamide] | 5.1 | 334 | 0.199 | 0.195 |
| CC(C)Oc1cc2c(OC[C@@H]3CCC(=O)N3)ncc(C#CCN3CCOCC3)c2cc1C(N)=O [Compound I-7, (S)-7-isopropoxy-4-(3-morpholinoprop-1-yn-1-yl)-1-((5-oxopyrrolidin-2-yl)methoxy)isoquinoline-6-carboxamide] | 8.2 | 383 | 0.402 | 0.527 |
| CC(C)Oc1cc2c(OC[C@@H]3CCC(=O)N3)ncc(C#CCCN3CCOCC3)c2cc1C(N)=O [Compound I-8, (S)-7-isopropoxy-4-(4-morpholinobut-1-yn-1-yl)-1-((5-oxopyrrolidin-2-yl)methoxy)isoquinoline-6-carboxamide] | 12.3 | 313 | 0.411 | 0.332 |
| CC(C)Oc1cc2c(OC[C@@H]3CCC(=O)N3)ncc(C#CC3(O)CCCC3)c2cc1C(N)=O [Compound I-9, (S)-4-((1-hydroxycyclopentyl)ethynyl)-7-isopropoxy-1-((5-oxopyrrolidin-2-yl)methoxy)isoquinoline-6-carboxamide] | 9.9 | 210 | 0.319 | 0.394 |
| CC(C)Oc1cc2c(OC[C@@H]3CCC(=O)N3)ncc(C#CC3(O)CCOCC3)c2cc1C(N)=O [Compound I-10, (S)-4-((4-hydroxytetrahydro-2H-pyran-4-yl)ethynyl)-7-isopropoxy-1-((5-oxopyrrolidin-2-yl)methoxy)isoquinoline-6-carboxamide] | 11.6 | 2930 | 0.873 | 3.28 |
| CC(C)Oc1cc2c(OC[C@@H]3CCC(=O)N3)ncc(C#CCC3CCOCC3)c2cc1C(N)=O [Compound I-11, (S)-7-isopropoxy-1-((5-oxopyrrolidin-2-yl)methoxy)-4-(3-(tetrahydro-2H-pyran-4-yl)prop-1-yn-1-yl)isoquinoline-6-carboxamide] | 10.5 | 199 | 0.32 | 0.474 |
| CC(C)Oc1cc2c(OC[C@@H]3CCC(=O)N3)ncc(C#CC3(O)CCN(C(=O)OC(C)(C)C)CC3)c2cc1C(N)=O [Compound I-12, tert-butyl (S)-4-((6-carbamoyl-7-isopropoxy-1-((5-oxopyrrolidin-2-yl)methoxy)isoquinolin-4-yl)ethynyl)-4-hydroxypiperidine-1-carboxylate] | 41.2 | 6090 | 0.448 | 1.25 |
| CC(C)Oc1cc2c(OC[C@@H]3CCC(=O)N3)ncc(C#CC3(O)CCNCC3)c2cc1C(N)=O [Compound I-13, (S)-4-((4-hydroxypiperidin-4-yl)ethynyl)-7-isopropoxy-1-((5-oxopyrrolidin-2-yl)methoxy)isoquinoline-6-carboxamide] | 14.9 | 3500 | 4.67 | 4.64 |
| CC(C)Oc1cc2c(OC[C@@H]3CCC(=O)N3)ncc(C#CC3CCN(C(=O)OC(C)(C)C)CC3)c2cc1C(N)=O [Compound I-15, tert-butyl (S)-4-((6-carbamoyl-7-isopropoxy-1-((5-oxopyrrolidin-2-yl)methoxy)isoquinolin-4-yl)ethynyl)piperidine-1-carboxylate] | 15.9 | 71.9 | 0.0874 | 0.525 |
| COC(=O)N1CCC(C#Cc2cnc(OC[C@@H]3CCC(=O)N3)c3cc(OC(C)C)c(C(N)=O)cc23)CC1 [Compound I-16, methyl (S)-4-((6-carbamoyl-7-isopropoxy-1-((5-oxopyrrolidin-2-yl)methoxy)isoquinolin-4-yl)ethynyl)piperidine-1-carboxylate] | 11.9 | 245 | 0.0474 | 0.0886 |
| CC(C)Oc1cc2c(OC[C@@H]3CCC(=O)N3)ncc(C#CC3CCNCC3)c2cc1C(N)=O [Compound I-17, (S)-7-isopropoxy-1-((5-oxopyrrolidin-2-yl)methoxy)-4-(piperidin-4-ylethynyl)isoquinoline-6-carboxamide] | 1.7 | 17200 | 1.33 | 11.2 |
| CC(C)Oc1cc2c(OC[C@@H]3CCC(=O)N3)ncc(C#CC3CCN(C)CC3)c2cc1C(N)=O [Compound I-18, (S)-7-isopropoxy-4-((1-methylpiperidin-4-yl)ethynyl)-1-((5-oxopyrrolidin-2-yl)methoxy)isoquinoline-6-carboxamide] | 2.3 | 203 | 0.306 | 0.606 |
| CCO[C@H]1CC[C@H](C#Cc2cnc(OC[C@@H]3CCC(=O)N3)c3cc(OC(C)C)c(C(N)=O)cc23)CC1 [Compound I-20, 4-(((1r,4S)-4-ethoxycyclohexyl)ethynyl)-7-isopropoxy-1-(((S)-5-oxopyrrolidin-2-yl)methoxy)isoquinoline-6-carboxamide] | 7 | 63.4 | 0.0688 | 0.11 |
| CCO[C@H]1CC[C@@H](C#Cc2cnc(OC[C@@H]3CCC(=O)N3)c3cc(OC(C)C)c(C(N)=O)cc23)CC1 [Compound I-21, 4-((cis-4-ethoxycyclohexyl)ethynyl)-7-isopropoxy-1-(((S)-5-oxopyrrolidin-2-yl)methoxy)isoquinoline-6-carboxamide] | 5.6 | 101 | 0.104 | 0.194 |
